{
  "source": "patent US9302999B2",
  "about": "“Substituted triazoles as herbicides” (E. I. DU PONT DE NEMOURS AND COMPANY, priority 2012, dated 2016)",
  "type_in_all_cases": "in vivo",
  "key": {"[1]": {"tested_on": "ryegrass, Italian (Italian ryegrass, Lolium multiflorum)", "assay": "Test C pre-/postemergence: ryegrass, Italian", "conditions": "Postemergence", "how_it_was_run": "(§1)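 Visual injury scored 0–100 (100 = complete control) against untreated controls after 13–15 greenhouse days. Surfactant-containing solvent formulations applied either to soil after sowing (loam/sand) or over 1- to 4-leaf plants, 2–18 cm tall.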"}, "[2]": {"tested_on": "pigweed (Amaranthus retroflexus)", "assay": "Test A pre-/postemergence: pigweed", "conditions": "1000 g ai/ha", "how_it_was_run": "(§2)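 Plants in loam–sand blend were treated with test chemicals in non-phytotoxic solvent with surfactant, either as preemergence directed soil spray or postemergence at 2–10 cm, one- to two-leaf stage. After about ten days in greenhouse, injury was rated visually against untreated controls on a 0–100 scale (100 = complete control).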"}, "[3]": {"tested_on": "chickweed (common chickweed, Stellaria media)", "assay": "Test C postemergence: chickweed", "how_it_was_run": "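Response values are visual ratings, 0 (no effect) to 100 (complete control), made by comparison with untreated controls 13 to 15 days after postemergence treatment of greenhouse-grown potted plants that were 2 to 18 cm high at spraying.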"}, "[4]": {"tested_on": "wild oat (Avena fatua)", "assay": "Test C pre-/postemergence: wild oat", "conditions": "Postemergence", "how_it_was_run": "as §1"}, "[5]": {"tested_on": "corn (Zea mays)", "assay": "Test A pre-/postemergence: corn", "conditions": "1000 g ai/ha", "how_it_was_run": "as §2"}, "[6]": {"tested_on": "corn (Zea mays)", "assay": "Test C pre-/postemergence: corn", "conditions": "Postemergence", "how_it_was_run": "as §1"}, "[7]": {"tested_on": "morningglory (Ipomoea spp.)", "assay": "Test A pre-/postemergence: morningglory", "conditions": "1000 g ai/ha", "how_it_was_run": "as §2"}, "[8]": {"tested_on": "ragweed (common ragweed, Ambrosia elation)", "assay": "Test C pre-/postemergence: ragweed", "conditions": "Postemergence", "how_it_was_run": "as §1"}, "[9]": {"tested_on": "johnsongrass (Sorghum halepense)", "assay": "Test C pre-/postemergence: johnsongrass", "conditions": "Postemergence", "how_it_was_run": "as §1"}, "[10]": {"tested_on": "wheat (Triticum aestivum)", "assay": "Test A pre-/postemergence: wheat", "conditions": "1000 g ai/ha", "how_it_was_run": "as §2"}, "[11]": {"tested_on": "morningglory (Ipomoea coccinea)", "assay": "Test C pre-/postemergence: morningglory", "conditions": "Postemergence", "how_it_was_run": "as §1"}, "[12]": {"tested_on": "large crabgrass (Digitaria sanguinalis)", "assay": "Test C pre-/postemergence: large crabgrass", "conditions": "Postemergence", "how_it_was_run": "as §1"}, "[13]": {"conditions": "16 g ai/ha, scale 0 to 100, 0 no effect, 100 complete control"}, "[14]": {"conditions": "31 g ai/ha, scale 0 to 100 (0 no effect, 100 complete control)"}, "[15]": {"conditions": "62 g ai/ha, scale 0 to 100 (0 no effect, 100 complete control)"}, "[16]": {"conditions": "125 g ai/ha, scale 0 to 100, 0 no effect, 100 complete control"}, "[17]": {"conditions": "Postemergence, visual rating on 0 to 100 scale (0 no effect, 100 complete control), approximately ten days"}, "[18]": {"conditions": "Preemergence, 0 to 100 scale, 0 is no effect, 100 is complete control"}},
  "data": [
    {"smiles": "Cc1nn(-c2ccc(C(F)(F)F)cc2)nc1Cc1cccc(C(F)(F)F)c1", "note": "[Compound 124]", "values": [
      {"measurement": "Plant response rating, Ryegrass, Italian", "setting": "[1]; [13]", "value": 5},
      {"measurement": "Plant response rating, Ryegrass, Italian", "setting": "[1]; [14]", "value": 15},
      {"measurement": "Plant response rating, Ryegrass, Italian", "setting": "[1]; [15]", "value": 35},
      {"measurement": "Plant response rating, Ryegrass, Italian", "setting": "[1]; [16]", "value": 65},
      {"measurement": "Pigweed plant response rating", "setting": "[2]; [17]", "value": 100},
      {"measurement": "Pigweed plant response rating", "setting": "[2]; [18]", "value": 100},
      {"measurement": "Plant response rating, Chickweed", "setting": "[3]; [13]", "value": 45},
      {"measurement": "Plant response rating, Chickweed", "setting": "[3]; [14]", "value": 50},
      {"measurement": "Plant response rating, Chickweed", "setting": "[3]; [15]", "value": 55},
      {"measurement": "Plant response rating, Chickweed", "setting": "[3]; [16]", "value": 55},
      {"measurement": "Plant response rating, Oat, Wild", "setting": "[4]; [13]", "value": 20},
      {"measurement": "Plant response rating, Oat, Wild", "setting": "[4]; [14]", "value": 20},
      {"measurement": "Plant response rating, Oat, Wild", "setting": "[4]; [15]", "value": 25},
      {"measurement": "Plant response rating, Oat, Wild", "setting": "[4]; [16]", "value": 35},
      {"measurement": "Corn plant response rating", "setting": "[5]; [17]", "value": 60},
      {"measurement": "Corn plant response rating", "setting": "[5]; [18]", "value": 10},
      {"measurement": "Plant response rating, Corn", "setting": "[6]; [13]", "value": 5},
      {"measurement": "Plant response rating, Corn", "setting": "[6]; [14]", "value": 20},
      {"measurement": "Plant response rating, Corn", "setting": "[6]; [15]", "value": 25},
      {"measurement": "Plant response rating, Corn", "setting": "[6]; [16]", "value": 25},
      {"measurement": "Morningglory plant response rating", "setting": "[7]; [17]", "value": 100},
      {"measurement": "Morningglory plant response rating", "setting": "[7]; [18]", "value": 40},
      {"measurement": "Plant response rating, Ragweed", "setting": "[8]; [13]", "value": 45},
      {"measurement": "Plant response rating, Ragweed", "setting": "[8]; [14]", "value": 50},
      {"measurement": "Plant response rating, Ragweed", "setting": "[8]; [15]", "value": 65},
      {"measurement": "Plant response rating, Ragweed", "setting": "[8]; [16]", "value": 65},
      {"measurement": "Plant response rating, Johnsongrass", "setting": "[9]; [13]", "value": 5},
      {"measurement": "Plant response rating, Johnsongrass", "setting": "[9]; [14]", "value": 5},
      {"measurement": "Plant response rating, Johnsongrass", "setting": "[9]; [15]", "value": 40},
      {"measurement": "Plant response rating, Johnsongrass", "setting": "[9]; [16]", "value": 45},
      {"measurement": "Wheat plant response rating", "setting": "[10]; [17]", "value": 40},
      {"measurement": "Wheat plant response rating", "setting": "[10]; [18]", "value": 0},
      {"measurement": "Plant response rating, Morningglory", "setting": "[11]; [13]", "value": 15},
      {"measurement": "Plant response rating, Morningglory", "setting": "[11]; [14]", "value": 15},
      {"measurement": "Plant response rating, Morningglory", "setting": "[11]; [15]", "value": 40},
      {"measurement": "Plant response rating, Morningglory", "setting": "[11]; [16]", "value": 40},
      {"measurement": "Plant response rating, Crabgrass, Large", "setting": "[12]; [13]", "value": 20},
      {"measurement": "Plant response rating, Crabgrass, Large", "setting": "[12]; [14]", "value": 30},
      {"measurement": "Plant response rating, Crabgrass, Large", "setting": "[12]; [15]", "value": 40},
      {"measurement": "Plant response rating, Crabgrass, Large", "setting": "[12]; [16]", "value": 45}
    ]}
  ]
}
